# Experimental data reported in patent US20250099494A1, “PHOSPHONIC ACID COMPOUND AND PRODRUG THEREOF, AND PREPARATION METHODS FOR AND USES OF PHOSPHONIC ACID COMPOUND AND PRODRUG THEREOF” (HAIHE BIOPHARMA CO., LTD., priority 2022, published 2025).
# How the values were obtained:
# hENPP1-ECD-His = hENPP1-ECD-His (Homo sapiens (Human), UniProt P22413); test: ENPP1 inhibitory activity, substrate 2',3'-cGAMP detection (AMP-Glo); details: read-out: c-GAMP (IC50, nM), inhibitory effect on ENPP1
# Procedure: The ENPP1 inhibitory activity of the compound of the present disclosure was tested in substrate 2′,3′-cGAMP detection.
# Experimental objective: based on the established experimental method, the inhibitory IC50 value of the compound in the present application on ENPP1 was detected using 2′,3′-cGAMP as the substrate.
# 2. Preparation of compound concentration gradient: the tested compound was dissolved in DMSO (dimethyl sulfoxide) to an initial concentration of 10 μM, diluted at 3 times, with 10 concentrations, single well or multi-well testing was set. […] The compound was diluted by gradient in a 384 well plate to a solution with the final concentration of 1000 times, and then 5 nL of the solution was transferred to a 384 well reaction plate for testing using Echo550.5 nL of 100% DMSO was transferred from the smallest well and the largest well.
# 6. The reaction solution was centrifuged at 1000 rpm for 1 minute and incubated at room temperature for 15 minutes.
# 7. 2.5 μL 2× substrate solution was added to each well of the reaction plate, centrifuged at 1000 rpm for 1 minute, and incubated at room temperature for 60 minutes.
# 8. 5 μL of R1 solution (from AMP-Glo™ Kit) was added to each well of the reaction plate, centrifuged at 1000 rpm for 1 minute and incubated at room temperature for 120 minutes.
# 9. 10 μL of R2 solution (from AMP-Glo™ Kit) was added to each well of the reaction plate, centrifuged at 1000 rpm for 1 minute and incubated at room temperature for 30 minutes.
# The inhibition rate is calculated using the following formula: • inhibition rate %=(maximum signal−compound signal)/(maximum signal−minimum signal)×100 • wherein the “minimum signal” represents the mean value of the negative control well, and the “maximum signal” represents the mean value of the positive control well.
# Using the log value of concentration as the X-axis and the percentage inhibition rate as the Y-axis, the dose-response curve was fitted using the log(inhibitor) vs. response-variable slope of analysis software GraphPadPrism5 to obtain the inhibitory IC50 value of the compound of the present disclosure on enzyme activity.
# [1] = Pharmacokinetic test experiment of mice; format: in vivo, ICR mice; details: after oral administration
# Procedure: 1. In each administration mode, 9 healthy ICR mice male, weighing 30-35 g, were randomly divided into 3 groups (M1, M2, M3) with 3 mice in each group. […] Feeding uniformly 4 hours after administration.
# [2] = mice, reported by the literature; cited from earlier work
# [3] = Pharmacokinetic test experiment for rats; format: in vivo, SD rats; details: p.o. prodrug compound 7 (5 mg/kg) vs i.v. compound 1 (1 mg/kg)
# Procedure: 1. Six SD rats of 6-8 weeks old, male, were taken in each administration mode, and the tested compound was administered by gavage (5 mg/kg) and intravenous injection (1 mg/kg), respectively: fasting for 12 hours before the experiment and drinking water freely. Feeding uniformly 4 hours after administration.
# (§1) Plasma collection and processing: at the above set time points, 150-200 μL of blood was collected via the plexus jugularis or a suitable part, placed in EDTA-K2 test tube, centrifuged at 3500 rpm for 10 min, plasma was separated, and frozen at −20° C. in a refrigerator.
# LC/MS/MS method was used to determine the concentration of compounds in rats plasma. The pharmacokinetic parameters after administration were calculated using a non-compartmental model using Phoenix 8.3 software (Pharsight, USA).
# [4] = Pharmacokinetic test experiment for dogs; details: beagle dogs, p.o. prodrug compound 7 (2 mg/kg) vs i.v. compound 1 (1 mg/kg)
# Procedure: Feeding uniformly 4 hours after administration.
# as §1, with “Blood was collected continuously, with 3 animals collected at each time point. Plasma” for “Plasma”, “1,000” for “150-200”
# LC/MS/MS method was used to determine the concentration of compounds in the beagle dogs plasma. The pharmacokinetic parameters after administration were calculated using a non-compartmental model using Phoenix 8.3 software (Pharsight, USA).
# hENPP1-ECD-His, sequence (P22413 98-925): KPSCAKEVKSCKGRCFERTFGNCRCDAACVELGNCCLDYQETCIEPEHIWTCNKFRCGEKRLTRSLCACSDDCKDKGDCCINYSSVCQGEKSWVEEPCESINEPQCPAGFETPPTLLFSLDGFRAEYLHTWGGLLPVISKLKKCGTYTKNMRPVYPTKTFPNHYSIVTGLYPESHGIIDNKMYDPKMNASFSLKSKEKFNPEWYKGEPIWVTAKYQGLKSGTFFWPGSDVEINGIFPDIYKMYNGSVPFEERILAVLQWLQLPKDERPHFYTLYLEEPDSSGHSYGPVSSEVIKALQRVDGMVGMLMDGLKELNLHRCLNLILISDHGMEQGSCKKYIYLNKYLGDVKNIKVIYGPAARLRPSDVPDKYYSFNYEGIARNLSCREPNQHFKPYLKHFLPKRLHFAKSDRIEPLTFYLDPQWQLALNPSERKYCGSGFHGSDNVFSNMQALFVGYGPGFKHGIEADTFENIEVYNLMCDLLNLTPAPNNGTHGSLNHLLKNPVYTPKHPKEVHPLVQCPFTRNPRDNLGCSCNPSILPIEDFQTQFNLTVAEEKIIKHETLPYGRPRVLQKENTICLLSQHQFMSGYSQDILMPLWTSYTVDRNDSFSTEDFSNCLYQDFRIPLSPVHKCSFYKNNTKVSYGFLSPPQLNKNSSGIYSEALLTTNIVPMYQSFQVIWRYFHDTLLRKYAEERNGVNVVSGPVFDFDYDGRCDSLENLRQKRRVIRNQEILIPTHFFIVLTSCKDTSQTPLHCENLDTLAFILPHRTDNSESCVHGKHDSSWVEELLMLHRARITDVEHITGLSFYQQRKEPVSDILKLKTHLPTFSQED
SMILES,IC50 (hENPP1-ECD-His),also measured
COc1ccc2c(Oc3cc(F)c(CP(=O)(O)O)cc3F)ccnc2n1 [Compound 6],11 nM,
COc1ccc2c(Oc3c(F)cc(CP(=O)(O)O)cc3F)ccnc2n1 [Compound 3],18 nM,
COc1ccc2c(Nc3ccc(CP(=O)(O)O)cc3)ncnc2n1 [Compound 13],0.94 nM,
COc1ccc2c(Oc3ccc(CP(=O)(OCOC(=O)OC(C)C)OCOC(=O)OC(C)C)cc3)ccnc2n1 [Compound 8],,time of conversion of prodrug to parent drug compound 1 in mice plasma [1]: ≤ 5 min
COc1ccc2c(Oc3cc(F)c(CP(=O)(O)O)c(F)c3)ccnc2n1 [Compound 5],11 nM,
COc1ccc2c(Oc3ccc(CP(=O)(OCOC(=O)C(C)(C)C)OCOC(=O)C(C)(C)C)cc3)ccnc2n1 [Compound 7],,time of conversion of prodrug to parent drug compound 1 in mice plasma [1]: ≤ 5 min; Bioavailability Oral BA (% F) [3]: 40 % F; Bioavailability Oral BA (% F) [4]: 21 % F

# The next lines start with results.
IC50 (hENPP1-ECD-His),SMILES,also measured
2.1 nM,COc1ccc2c(Nc3ccc(CP(=O)(O)O)nc3)ccnc2n1 [Compound 20],
63 nM,"COc1cc2ncnc(Nc3ccc(CP(=O)(O)O)cc3)c2cc1OC [STF22, reference compound]",
37 nM,COc1ccc2c(Oc3ccc(CCP(=O)(O)O)cc3)ccnc2n1 [Compound 23],
6.2 nM,"COc1cccc2c(N3CCC(CCP(=O)(O)O)CC3)ncnc12 [STF32, reference compound]",half-life of injection administration T1/2 [2]: 14 min
5 nM,COc1ccc2c(Nc3ccc(CP(=O)(O)O)cn3)ccnc2n1 [Compound 21],
